The target of this assay is histone deacetylase, subtype 1 (HDAC1) (Homo sapiens (Human), UniProt Q13547). The assay is described as follows: HDAC1-Flag in vitro deacetylation assay. Conditions: IP = inflection point; read-out: HDAC1 IP (inflection point). It counts as biochemical. On the procedure:
Novel compounds were tested for their ability to inhibit histone deacetylase, subtype 1 (HDAC1) using an in vitro deacetylation assay. The enzyme source for this assay was an epitope-tagged human HDAC1 complex immuno-purified from stably expressing mammalian cells. The substrate consisted of a commercial product containing an acetylated lysine side chain (BIOMOL Research Laboratories, Inc., Plymouth Meeting, Pa.). Upon deacetylation of the substrate by incubation with the purified HDAC1 complex, a fluorophore is produced that is directly proportional to the level of deacetylation.
histone deacetylase, subtype 1 (HDAC1), sequence (Q13547 whole entry): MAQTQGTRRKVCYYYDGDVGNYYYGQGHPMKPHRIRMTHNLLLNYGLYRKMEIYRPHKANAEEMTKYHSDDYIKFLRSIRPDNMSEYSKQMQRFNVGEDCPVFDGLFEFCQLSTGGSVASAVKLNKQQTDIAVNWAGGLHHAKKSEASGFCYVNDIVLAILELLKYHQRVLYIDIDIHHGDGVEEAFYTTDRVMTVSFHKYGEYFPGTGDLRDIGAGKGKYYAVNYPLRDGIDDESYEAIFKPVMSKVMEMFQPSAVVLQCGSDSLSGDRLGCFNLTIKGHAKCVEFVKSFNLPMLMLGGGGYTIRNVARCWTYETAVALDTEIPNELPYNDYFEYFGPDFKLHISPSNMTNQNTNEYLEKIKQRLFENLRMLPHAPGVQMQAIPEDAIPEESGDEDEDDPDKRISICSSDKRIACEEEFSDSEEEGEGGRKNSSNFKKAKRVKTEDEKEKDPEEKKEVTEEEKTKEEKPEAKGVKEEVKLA
`COC(=O)c1ccc(-c2ccc(N)c(NC(=O)c3ccc(CNC(=O)OCc4cccnc4)cc3)c2)cc1` [Example 2, methyl 4′-amino-3′-[({4-[({[(pyridin-3-ylmethyl)oxy]carbonyl}amino)methyl]phenyl}carbonyl)amino]biphenyl-4-carboxylate]: the IC50 was 81 nM. Then `Nc1ccc(-c2cccnc2)cc1NC(=O)c1ccc(CNC(=O)OCc2cccnc2)cc1` [Example 3, pyridin-3-ylmethyl[(4-{[(2-amino-5-pyridin-3-ylphenyl)amino]carbonyl}phenyl)methyl]carbamate], with 17 nM.

Turning to `O=C(NCc1ccc(C(=O)Nc2cc(-c3ccccc3)ccc2O)cc1)OCc1cccnc1` [Example 5, pyridin-3-ylmethyl[(4-{[(4-hydroxybiphenyl-3-yl)amino]carbonyl}phenyl)methyl]carbamate], the IC50 was found to be 20 nM. Then `CC(C)(C)OC(=O)NCc1ccc(C(=O)Nc2cc(-c3ccccc3)ccc2O)cc1` [Example 7, 1,1-dimethylethyl[(4-{[(4-hydroxybiphenyl-3-yl)amino]carbonyl}phenyl)methyl]carbamate], with 70 nM. With `NCc1ccc(C(=O)Nc2cc(-c3ccccc3)ccc2O)cc1` [Example 8, 4-(aminomethyl)-N-(4-hydroxybiphenyl-3-yl)benzamide] the figure was 28 nM; with `O=C(Nc1cc(-c2ccccc2)ccc1O)c1ccc(CNCCc2ccccc2)cc1` [Example 71, N-(4-hydroxy-3-biphenylyl)-4-{[(2-phenylethyl)amino]methyl}benzamide], 970 nM. With `O=C(Nc1cc(-c2ccccc2)ccc1O)c1ccc(CNCCc2ccc(Br)cc2)cc1` [Example 72, 4-({[2-(4-bromophenyl)ethyl]amino}methyl)-N-(4-hydroxy-3-biphenylyl)benzamide] the figure was 1800 nM; with `CC(C)CNCc1ccc(C(=O)Nc2cc(-c3ccccc3)ccc2O)cc1` [Example 73, N-(4-hydroxy-3-biphenylyl)-4-[(isobutylamino)methyl]benzamide], 110 nM. In the case of `Cc1nc(-c2ccccc2)sc1CNCc1ccc(C(=O)Nc2cc(-c3ccccc3)ccc2O)cc1` [Example 74, N-(4-hydroxy-3-biphenylyl)-4-({[(4-methyl-2-phenyl-1,3-thiazol-5-yl)methyl]amino}methyl)benzamide], the IC50 was determined as 690 nM.

Turning to `O=C(Nc1cc(-c2ccccc2)ccc1O)c1ccc(CNC2CC2)cc1` [Example 75, 4-[(cyclopropylamino)methyl]-N-(4-hydroxy-3-biphenylyl)benzamide], the IC50 was found to be 76 nM. Then `O=C(Nc1cc(-c2ccccc2)ccc1O)c1ccc(CNc2ccccc2)cc1` [Example 76, 4-(anilinomethyl)-N-(4-hydroxy-3-biphenylyl)benzamide], with 89 nM. Then `O=C(Nc1cc(-c2ccccc2)ccc1O)c1ccc(CNC2CCCC2)cc1` [Example 77, 4-[(cyclopentylamino)methyl]-N-(4-hydroxy-3-biphenylyl)benzamide], with 150 nM; and `O=C(Nc1cc(-c2ccccc2)ccc1O)c1ccc(CNCC2CC2)cc1` [Example 78, 4-{[(cyclopropylmethyl)amino]methyl}-N-(4-hydroxy-3-biphenylyl)benzamide], with 72 nM; and `CN(C)CCNCc1ccc(C(=O)Nc2cc(-c3ccccc3)ccc2O)cc1` [Example 80, 4-({[2-(dimethylamino)ethyl]amino}methyl)-N-(4-hydroxy-3-biphenylyl)benzamide], with 120 nM. For the compound `O=C(Nc1cc(-c2ccccc2)ccc1O)c1ccc(CNCc2cccnc2)cc1` [Example 81, N-(4-hydroxy-3-biphenylyl)-4-{[(3-pyridinylmethyl)amino]methyl}benzamide], the IC50 stood at 32 nM. Then `O=C(Nc1cc(-c2ccccc2)ccc1O)c1ccc(CNCCCN2CCCC2)cc1` [Example 82, N-(4-hydroxy-3-biphenylyl)-4-({[3-(1-pyrrolidinyl)propyl]amino}methyl)benzamide], with 91 nM; and `O=C(Nc1cc(-c2ccccc2)ccc1O)c1ccc(CN2CCNCC2)cc1` [Example 83, N-(4-hydroxy-3-biphenylyl)-4-(1-piperazinylmethyl)benzamide], with 65 nM; and `O=C(Nc1cc(-c2ccccc2)ccc1O)c1ccc(CNc2ccncc2)cc1` [Example 84, N-(4-hydroxy-3-biphenylyl)-4-[(4-pyridinylamino)methyl]benzamide], with 9.9 nM. As to `O=C(Nc1cc(-c2ccccc2)ccc1O)c1ccc(CN2CCOCC2)cc1` [Example 85, N-(4-hydroxy-3-biphenylyl)-4-(4-morpholinylmethyl)benzamide], the IC50 stood at 48 nM. Consider `CC(C)OCCCNCc1ccc(C(=O)Nc2cc(-c3ccccc3)ccc2O)cc1` [Example 86, N-(4-hydroxy-3-biphenylyl)-4-{[(3-isopropoxypropyl)amino]methyl}benzamide], for which the IC50 was 95 nM. Then `CC1CCN(Cc2ccc(C(=O)Nc3cc(-c4ccccc4)ccc3O)cc2)CC1` [Example 87, N-(4-hydroxy-3-biphenylyl)-4-[(4-methyl-1-piperidinyl)methyl]benzamide], with 220 nM; and `CN(Cc1ccccc1)Cc1ccc(C(=O)Nc2cc(-c3ccccc3)ccc2O)cc1` [Example 88, 4-{[benzyl(methyl)amino]methyl}-N-(4-hydroxy-3-biphenylyl)benzamide], with 350 nM; and `O=C(Nc1cc(-c2ccccc2)ccc1O)c1ccc(CNCCCc2ccccc2)cc1` [Example 89, N-(4-hydroxy-3-biphenylyl)-4-{[(3-phenylpropyl)amino]methyl}benzamide], with 450 nM.

For `O=C(Nc1cc(-c2ccccc2)ccc1O)c1ccc(CN2CCc3ccccc3C2)cc1` [Example 90, 4-(3,4-dihydro-2(1H)-isoquinolinylmethyl)-N-(4-hydroxy-3-biphenylyl)benzamide], the IC50 was found to be 250 nM. Then `CC(C)NCCNCc1ccc(C(=O)Nc2cc(-c3ccccc3)ccc2O)cc1` [Example 91, N-(4-hydroxy-3-biphenylyl)-4-({[2-(isopropylamino)ethyl]amino}methyl)benzamide], with 44 nM; and `CC(C)CCNCc1ccc(C(=O)Nc2cc(-c3ccccc3)ccc2O)cc1` [Example 92, N-(4-hydroxy-3-biphenylyl)-4-{[(3-methylbutyl)amino]methyl}benzamide], with 100 nM.

As for `CN(CCc1ccccc1)Cc1ccc(C(=O)Nc2cc(-c3ccccc3)ccc2O)cc1` [Example 93, N-(4-hydroxy-3-biphenylyl)-4-{[methyl(2-phenylethyl)amino]methyl}benzamide], the IC50 stood at 340 nM.

On to `CCN(C)Cc1ccc(C(=O)Nc2cc(-c3ccccc3)ccc2O)cc1` [Example 94, 4-{[ethyl(methyl)amino]methyl}-N-(4-hydroxy-3-biphenylyl)benzamide], for which the IC50 was 31 nM.

As for `O=C(Nc1cc(-c2ccccc2)ccc1O)c1ccc(CN2Cc3ccccc3C2)cc1` [Example 95, 4-(1,3-dihydro-2H-isoindol-2-ylmethyl)-N-(4-hydroxy-3-biphenylyl)benzamide], the IC50 is 27000 nM. Then `O=C(Nc1cc(-c2ccccc2)ccc1O)c1ccc(CNCCOc2ccccc2)cc1` [Example 96, N-(4-hydroxy-3-biphenylyl)-4-{[(2-phenoxyethyl)amino]methyl}benzamide], with 360 nM; and `O=C(Nc1cc(-c2ccccc2)ccc1O)c1ccc(CNCCNc2ccccc2)cc1` [Example 97, 4-{[(2-anilinoethyl)amino]methyl}-N-(4-hydroxy-3-biphenylyl)benzamide], with 260 nM. Then `O=C(Nc1cc(-c2ccccc2)ccc1O)c1ccc(CNCc2cccs2)cc1` [Example 98, N-(4-hydroxy-3-biphenylyl)-4-{[(2-thienylmethyl)amino]methyl}benzamide], with 2100 nM; and `CNCCCN(C)Cc1ccc(C(=O)Nc2cc(-c3ccccc3)ccc2O)cc1` [Example 99, N-(4-hydroxy-3-biphenylyl)-4-({methyl[3-(methylamino)propyl]amino}methyl)benzamide], with 18 nM; and `CN1CCN(Cc2ccc(C(=O)Nc3cc(-c4ccccc4)ccc3O)cc2)CC1` [Example 100, N-(4-hydroxy-3-biphenylyl)-4-[(4-methyl-1-piperazinyl)methyl]benzamide], with 2400 nM. With `CNCCN(C)Cc1ccc(C(=O)Nc2cc(-c3ccccc3)ccc2O)cc1` [Example 101, N-(4-hydroxy-3-biphenylyl)-4-({methyl[2-(methylamino)ethyl]amino}methyl)benzamide] the figure was 35 nM; with `CCN1CCC(CNCc2ccc(C(=O)Nc3cc(-c4ccccc4)ccc3O)cc2)CC1` [Example 102, 4-({[(1-ethyl-4-piperidinyl)methyl]amino}methyl)-N-(4-hydroxy-3-biphenylyl)benzamide], 65 nM. On to `CN(Cc1ccc(C(=O)Nc2cc(-c3ccccc3)ccc2O)cc1)c1ccncc1` [Example 103, N-(4-hydroxy-3-biphenylyl)-4-{[methyl(4-pyridinyl)amino]methyl}benzamide], for which the IC50 was 13 nM. Turning to `CN(CCc1ccncc1)Cc1ccc(C(=O)Nc2cc(-c3ccccc3)ccc2O)cc1` [Example 104, N-(4-hydroxy-3-biphenylyl)-4-({methyl[2-(4-pyridinyl)ethyl]amino}methyl)benzamide], the IC50 was 33 nM. Consider `O=C(Nc1cc(-c2ccccc2)ccc1O)c1ccc(CNCCc2cccnc2)cc1` [Example 105, N-(4-hydroxy-3-biphenylyl)-4-({[2-(3-pyridinyl)ethyl]amino}methyl)benzamide], for which the IC50 came out at 2500 nM. Then `CN(C)C1CCN(Cc2ccc(C(=O)Nc3cc(-c4ccccc4)ccc3O)cc2)C1` (stereo not shown) [Example 106, 4-{[3-(dimethylamino)-1-pyrrolidinyl]methyl}-N-(4-hydroxy-3-biphenylyl)benzamide], with 50 nM.

The record behind these values is US9096559B2, “4-carboxybenzylamino derivatives as histone deacetylase inhibitors” (Merck Sharp & Dohme Corp., priority 2007, dated 2015).
